Values quoted from earlier work as cited in patent US8247348B1, “Method of preserving cut plant material” (priority 2007, dated 2012).

| SMILES | type of antifungal action (fungi) | pH at which effective (fungi; effective only in acidic conditions) | amount that can be lethal (humans; adults, as little as (2 tablespoons)) | estimated LD100 (humans; in humans) |
| --- | --- | --- | --- | --- |
| O=C([O-])c1ccccc1.[Na+] [Sodium benzoate] | fungistatic not fungicidal | < 4.5 |  |  |
| OCCO [Ethylene glycol] |  |  | 30 milliliters | approximately 1.4 ml/kg |
